Values after ≈ are worked out from the molar mass of the structure shown. Read-outs that look alike come from different tables or passages of the source.
Experiments:
Mycelial = assay: In vitro activity in Eagles Medium Essential Medium (EMEM), Mycelial; assay type: cell-based; conditions: read-out: GEOMETRIC MEAN MIC
[1] = system: Dermatophytes (seven species); assay: In vitro antifungal activity in Sabouraud dextrose broth, dermatophytes (seven species); assay type: cell-based; conditions: read-out: GEOMETRIC MEAN MIC
Candida (8 species) = assay: In vitro antifungal activity in Sabouraud dextrose broth, Candida (8 species); assay type: cell-based; conditions: read-out: GEOMETRIC MEAN MIC
Solubility = assay type: physicochemical
E. coli = assay: Bioautography after thin layer chromatography, E. coli; assay type: cell-based; conditions: TLC in 2:2:1 chloroform: methanol: pH 3.5 acetate buffer
From the text: (§1) The medium employed for the fermentation contained beef extract, tryptone, yeast extract, cerelose and soluble starch as the major sources of nitrogen and carbon, respectively.

C. abicans = assay: Bioautography after thin layer chromatography, C. abicans; assay type: cell-based; conditions: TLC in 2:2:1 chloroform: methanol: pH 3.5 acetate buffer
From the text: as §1

S. aureus = assay: Bioautography after thin layer chromatography, S. aureus; assay type: cell-based; conditions: TLC in 2:2:1 chloroform: methanol: pH 3.5 acetate buffer
From the text: as §1

[2] = Sabouraud Dextrose Broth Medium, Dermatophytes (seven species)
[3] = Sabouraud Dextrose Broth Medium, Candida (8 species)

Row | SMILES | MIC (Mycelial) | MIC [1] | MIC (Candida (8 species); Candida) | solubility in dichlormethane, chloroform and dimethyl sulfoxide (Solubility) | solubility in hexane and water (Solubility) | solubility in methanol, diethyl ether and ethyl acetate (Solubility) | MIC [1, 2] | MIC (Candida (8 species); [3]) | biological activity by bioautography (E. coli) | biological activity by bioautography (C. abicans) | biological activity by bioautography (S. aureus)
1 | COc1cccc2c1C(=O)c1c(O)c3c(c(O)c1C2=O)C[C@@](O)(C(=O)CO)C[C@@H]3O[C@H]1C[C@H](N)[C@H](O)[C@H](C)O1 [Adriamycin, reference compound] | 128 µg/mL (≈ 235 µM) | ≥ 128 µg/mL | ≥ 128 µg/mL |  |  |  |  |  |  |  | 
2 | CC1OC(OC2CCC(c3ccc4c(c3O)C(=O)C3=C(C4=O)C4(O)C(=O)CC(C)(OC5C=CC(=O)C(C)O5)CC4(O)C=C3)OC2C)C=CC1=O (stereo not drawn) [Compound 1a] | 78 µg/mL (≈ 113 µM) |  |  | soluble in dichlormethane, chloroform and dimethyl sulfoxide | insoluble in hexane and water | less soluble in methanol, diethyl ether and ethyl acetate | ≥ 5 µg/mL | ≥ 43 µg/mL | biologically active | biologically active | biologically active
3 | CC1OC(OC2(C)CC(=O)C3(O)C4=C(C=CC3(O)C2)C(=O)c2c(ccc(C3CCC(OC5CCC(O)C(C)O5)C(C)O3)c2O)C4=O)C=CC1=O (stereo not drawn) [Compound 1b] | 95 µg/mL (≈ 137 µM) |  |  | soluble in dichlormethane, chloroform and dimethyl sulfoxide | insoluble in hexane and water | less soluble in methanol, diethyl ether and ethyl acetate | ≥ 132 µg/mL | ≥ 128 µg/mL | biologically active | biologically active | biologically active

— US5420261A, “Glycosides of 3'-deoxyaquayamycin antibiotics” (Schering Corporation, priority 1992, dated 1995)
